The source made the active and inactive calls. The rule behind the calls is not given here.

Assay [1] is described as follows: Binding affinity to synthetic d(5'-GCGACTAGTCGC-3') DNA sequence assessed as change in heat by ITC assay.
The nature of assay [2]: Binding affinity to synthetic d(5'-GCGAGTACTCGC-3') DNA sequence assessed as change in heat by ITC assay.
A short description of assay [3]: Binding affinity to synthetic d(CGACTAGTCG)2 DNA sequence by NMR analysis.

With `CC(C)c1sc(NC(=O)CCCN(C)C)nc1C(=O)Nc1cc(C(=O)Nc2cc(C(N)=O)n(C)c2)n(C)c1`, the outcome in assay [1] and in assay [2] was inactive.
In the case of `CC(C)c1sc(NC(=O)c2cc(NC(=O)c3cc(NC=O)cn3C)cn2C)nc1C(=O)NCCCN(C)C`, the outcome in assay [3] was Active.

The record behind these values is ChEMBL document CHEMBL4414633, “Investigation of the Factors That Dictate the Preferred Orientation of Lexitropsins in the Minor Groove of DNA” (J Med Chem, 2019).
